Test results reported in ChEMBL document CHEMBL1201862, “PubChem BioAssay data set” (2004).
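Compound exposure: 48 hours, 5 concentrations, 96-well plates. GI50: concentration for 50% inhibition of growth.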 Activity calls are given as the source filed them. No stated cut-off is given here; in the data, active = GI50 up to about 1.1 µM and inactive = higher.

Tests used:
Assay in all cases: NCI tumour cell line growth inhibition, 48 h
[1] = tested on: 786-0
[2] = tested on: HCC 2998
[3] = tested on: HOP-62
[4] = tested on: IGROV-1
[5] = tested on: M14
[6] = tested on: MDA-MB-435
[7] = tested on: NCI-H226
[8] = tested on: NCI-H23
[9] = tested on: NCI-H522
[10] = tested on: NCI/ADR-RES
[11] = tested on: OVCAR-3
[12] = tested on: RPMI-8226
[13] = tested on: SF-268
[14] = tested on: SF-295
[15] = tested on: SK-MEL-5
[16] = tested on: T47D
[17] = tested on: U-251
[18] = tested on: UACC-62
[19] = tested on: BT-549
[20] = tested on: OVCAR-8

SMILES | GI50 [1] | GI50 [2] | GI50 [3] | GI50 [4] | GI50 [5] | GI50 [6] | GI50 [7] | GI50 [8] | GI50 [9] | GI50 [10] | GI50 [11] | GI50 [12] | GI50 [13] | GI50 [14] | GI50 [15] | GI50 [16] | GI50 [17] | GI50 [18] | GI50 [19] | GI50 [20]
COc1ccc(/C=C/c2ccnc3ccccc23)cc1 | 16.8 µM (inactive) | 20.1 µM (inactive) | 20.5 µM (inactive) | 17.3 µM (inactive) | 17.3 µM (inactive) | 17.1 µM (inactive) | 21.9 µM (inactive) | 12.7 µM (inactive) | 17.5 µM (inactive) | 14.2 µM (inactive) | 13.4 µM (inactive) | 10.7 µM (inactive) | 15.2 µM (inactive) | 16.9 µM (inactive) | 14.3 µM (inactive) | 4.9 µM (inactive) | 17.1 µM (inactive) | 15.7 µM (inactive) | – | –
OC[C@@H](O)[C@H]1NC[C@@H](O)[C@H]1O | > 100 µM (inactive) | > 100 µM (inactive) | > 100 µM (inactive) | > 100 µM (inactive) | > 100 µM (inactive) | > 100 µM (inactive) | – | > 100 µM (inactive) | > 100 µM (inactive) | – | > 100 µM (inactive) | > 100 µM (inactive) | > 100 µM (inactive) | > 100 µM (inactive) | > 100 µM (inactive) | – | > 100 µM (inactive) | > 100 µM (inactive) | > 100 µM (inactive) | > 100 µM (inactive)
COc1cccc(NC(=O)C(C#N)=C(SC)SC)c1 | > 100 µM (inactive) | > 100 µM (inactive) | > 100 µM (inactive) | > 100 µM (inactive) | > 100 µM (inactive) | > 100 µM (inactive) | > 100 µM (inactive) | – | 30.4 µM (inactive) | > 100 µM (inactive) | – | – | > 100 µM (inactive) | > 100 µM (inactive) | 41.8 µM (inactive) | – | > 100 µM (inactive) | > 100 µM (inactive) | > 100 µM (inactive) | > 100 µM (inactive)
Cc1cn(C(CO)OC(CO)CN(O)C2C3CC4CC(C3)CC2C4)c(=O)[nH]c1=O (stereo not drawn) | > 100 µM (inactive) | > 100 µM (inactive) | > 100 µM (inactive) | > 100 µM (inactive) | > 100 µM (inactive) | > 100 µM (inactive) | > 100 µM (inactive) | > 100 µM (inactive) | – | – | – | > 100 µM (inactive) | > 100 µM (inactive) | > 100 µM (inactive) | > 100 µM (inactive) | > 100 µM (inactive) | > 100 µM (inactive) | > 100 µM (inactive) | > 100 µM (inactive) | > 100 µM (inactive)
Cc1ccc(NC(=O)/C(CC2Nc3c(ccc4c3C(=O)c3ccccc3C4=O)NC2O)=N/NC(C)(C)C)cc1 (stereo not drawn) | 4.52 µM (inactive) | 22.6 µM (inactive) | 13.8 µM (inactive) | 8.07 µM (inactive) | 18.7 µM (inactive) | 17.7 µM (inactive) | – | 17.7 µM (inactive) | 15.9 µM (inactive) | 1.67 µM (inactive) | 18.7 µM (inactive) | – | 10.4 µM (inactive) | 27.9 µM (inactive) | 5.6 µM (inactive) | – | 14.1 µM (inactive) | 11.9 µM (inactive) | 22 µM (inactive) | 6.52 µM (inactive)
CCCCCCCCCCCCCCCC1(OC)C[N+](C)(C)CCO1 (stereo not drawn) | 0.813 µM (active) | 2.54 µM (inactive) | 1.61 µM (inactive) | 1.61 µM (inactive) | 1.65 µM (inactive) | 1.96 µM (inactive) | 1.08 µM (active) | 1.3 µM (inactive) | 1.65 µM (inactive) | 17.9 µM (inactive) | 1.75 µM (inactive) | – | 2.08 µM (inactive) | 1.69 µM (inactive) | 1.9 µM (inactive) | 5.73 µM (inactive) | 1.6 µM (inactive) | 2.76 µM (inactive) | – | 1.83 µM (inactive)
Cc1ccc(C(=O)CCC2C(=O)CC(C)(C)CC2=O)cc1 | > 100 µM (inactive) | > 100 µM (inactive) | > 100 µM (inactive) | > 100 µM (inactive) | > 100 µM (inactive) | > 100 µM (inactive) | > 100 µM (inactive) | > 100 µM (inactive) | 16.6 µM (inactive) | > 100 µM (inactive) | > 100 µM (inactive) | – | > 100 µM (inactive) | > 100 µM (inactive) | > 100 µM (inactive) | – | > 100 µM (inactive) | > 100 µM (inactive) | > 100 µM (inactive) | > 100 µM (inactive)
O=C(CSc1nc2ccccc2c(=O)n1-c1ccccc1)N/N=C1\C(=O)Nc2ccc(F)cc21 | 2.34 µM (inactive) | 2.21 µM (inactive) | 2.09 µM (inactive) | – | 1.9 µM (inactive) | 3.64 µM (inactive) | 2.28 µM (inactive) | 3.01 µM (inactive) | – | 2.21 µM (inactive) | 1.91 µM (inactive) | 2.3 µM (inactive) | 2.25 µM (inactive) | 1.87 µM (inactive) | 3.3 µM (inactive) | 1.87 µM (inactive) | 8.93 µM (inactive) | 2.24 µM (inactive) | – | –
O=C(Cc1ccccc1)NN1C(=O)/C(=C\c2cccc(O)c2)S/C1=N\c1ccccc1 | > 100 µM (inactive) | > 100 µM (inactive) | > 100 µM (inactive) | > 100 µM (inactive) | > 100 µM (inactive) | > 100 µM (inactive) | > 100 µM (inactive) | > 100 µM (inactive) | – | > 100 µM (inactive) | 83.4 µM (inactive) | – | > 100 µM (inactive) | > 100 µM (inactive) | > 100 µM (inactive) | 57.3 µM (inactive) | > 100 µM (inactive) | > 100 µM (inactive) | – | > 100 µM (inactive)
Sc1nnc(CNc2ccc(-c3nnc(S)n3-c3ccc(Cl)cc3)cc2)n1-c1ccc(Cl)cc1 | 26.9 µM (inactive) | 31.2 µM (inactive) | 18.5 µM (inactive) | 3.21 µM (inactive) | 25.2 µM (inactive) | 28.3 µM (inactive) | 40.7 µM (inactive) | 39 µM (inactive) | 15.2 µM (inactive) | > 100 µM (inactive) | – | 16.7 µM (inactive) | 30.3 µM (inactive) | 26.9 µM (inactive) | 25.1 µM (inactive) | – | 37.3 µM (inactive) | 25.2 µM (inactive) | 34.6 µM (inactive) | –
C=CCOC(=O)N1c2ccc(O)cc2[C@@]23O[C@@]24[C@@H]1C#C/C=C\C#C[C@]3(O)C(=O)C[C@@H]4C | 13.9 µM (inactive) | > 100 µM (inactive) | > 100 µM (inactive) | 62.8 µM (inactive) | 39.7 µM (inactive) | 27.4 µM (inactive) | 34.4 µM (inactive) | 22.7 µM (inactive) | 40.1 µM (inactive) | 65.5 µM (inactive) | – | 25.6 µM (inactive) | 79.1 µM (inactive) | > 100 µM (inactive) | 21.5 µM (inactive) | > 100 µM (inactive) | 95.9 µM (inactive) | 99.8 µM (inactive) | – | 47.1 µM (inactive)
Cc1cc(O)c2c(=O)c3ccccc3[nH]c2c1 | 15.6 µM (inactive) | 37.3 µM (inactive) | 23.2 µM (inactive) | 13.3 µM (inactive) | 18.1 µM (inactive) | 27.4 µM (inactive) | 23.1 µM (inactive) | 15 µM (inactive) | 3.56 µM (inactive) | 23.5 µM (inactive) | 29 µM (inactive) | 11.8 µM (inactive) | 26.8 µM (inactive) | 20 µM (inactive) | 14.7 µM (inactive) | – | 40.8 µM (inactive) | > 10 µM (inactive) | 24.8 µM (inactive) | 23 µM (inactive)
O=P(O)(O)CN1CCNCCN(CP(=O)(O)O)CCNCC1 | > 30.8 µM (inactive) | 7.64 µM (inactive) | > 100 µM (inactive) | 6.52 µM (inactive) | 26.1 µM (inactive) | 12 µM (inactive) | – | 10.1 µM (inactive) | 9.38 µM (inactive) | 35.2 µM (inactive) | > 100 µM (inactive) | 5.97 µM (inactive) | > 100 µM (inactive) | > 100 µM (inactive) | 4.76 µM (inactive) | – | > 24.4 µM (inactive) | 7.74 µM (inactive) | > 100 µM (inactive) | 6.68 µM (inactive)
COc1ccc(C2C=C(c3ccc4c(c3)OCO4)Oc3c2c(=O)oc2ccccc32)cc1OC (stereo not drawn) | 0.43 µM (active) | 0.506 µM (active) | > 100 µM (inactive) | 0.634 µM (active) | 0.502 µM (active) | 0.152 µM (active) | 0.258 µM (active) | 0.446 µM (active) | 0.303 µM (active) | 0.543 µM (active) | 0.475 µM (active) | 0.254 µM (active) | 0.713 µM (active) | 0.279 µM (active) | 0.324 µM (active) | – | 0.413 µM (active) | 0.294 µM (active) | 3.18 µM (inactive) | 0.839 µM (active)
COc1cc2c(cc1OCCCN1CCN(C)CC1)N=C[C@@H]1CCCN1C2=O | 3.4 µM (inactive) | – | 3.44 µM (inactive) | – | 1.86 µM (inactive) | 1.9 µM (inactive) | 1.93 µM (inactive) | – | 0.179 µM (active) | 3.5 µM (inactive) | 2.06 µM (inactive) | 1.04 µM (active) | 3.03 µM (inactive) | 2 µM (inactive) | 2.04 µM (inactive) | – | 0.935 µM (active) | 1.78 µM (inactive) | 1.77 µM (inactive) | 2.58 µM (inactive)
Oc1ccc(O)c(Cc2ccccc2)c1 | 14.7 µM (inactive) | 93.1 µM (inactive) | 27.9 µM (inactive) | – | 23.5 µM (inactive) | 19.5 µM (inactive) | 19.6 µM (inactive) | 26.4 µM (inactive) | – | 16.4 µM (inactive) | 1.07 µM (active) | 3.61 µM (inactive) | 12.5 µM (inactive) | 56.1 µM (inactive) | 17.3 µM (inactive) | 0.0887 µM (active) | 20.1 µM (inactive) | 20.2 µM (inactive) | – | 15.4 µM (inactive)
